Source: patent publication US6806273B1, “Compounds” (AstraZeneca AB, priority 1998, dated 2004)

Structure (SMILES) | melting point [°C]
Nc1nc2nc(SCc3cccc(Oc4ccccc4)c3)[nH]c(=O)c2s1 [Example 5, 2-Amino-5-[[(3-phenoxyphenyl)methyl]thio]thiazolo[4,5-d]pyrimidin-7(4H)-one] | 266 to 269
CC(C)(CO)Nc1nc(SCc2cccc(Oc3ccccc3)c2)nc2nc(N)sc12 [Example 115, 2-[[2-Amino-5-[[(3-phenoxyphenyl)methyl]thio]thiazolo[4,5-d]pyrimidin-7-yl]amino]-2-methyl-1-propanol] | 126 to 130
CCCCCSc1nc2ncsc2c(=O)[nH]1 [Example 8, 5-(Pentylthio)thiazolo[4,5-d]pyrimidin-7(4H)-one] | 208 to 209
Nc1nc2nc(SCc3cccc(Oc4ccccc4)c3)nc(NC(CO)CO)c2s1 [Example 114, 2-[[2-Amino-5-[[(3-phenoxyphenyl)methyl]thio]thiazolo[4,5-d]pyrimidin-7-yl]amino]-1,3-propanediol] | 220 to 222
O=c1[nH]c(SCc2cccc(Oc3ccccc3)c2)nc2ncsc12 [Example 4, 5-[[(3-Phenoxyphenyl)methyl]thio]thiazolo[4,5-d]pyrimidin-7(4H)-one] | 197 to 198
CCCCCSc1nc(NCCO)c2sc(N)nc2n1 [Example 7, 2-[[2-Amino-5-(pentylthio)thiazolo[4,5-d]pyrimidin-7-yl]amino]ethanol] | 192 to 195

Results, then the compound that gave them:

melting point [°C] | Structure (SMILES)
111 to 114 | CC[C@@H](CO)Nc1nc(SCc2cccc(Oc3ccccc3)c2)nc2nc(N)sc12 [Example 112, (2S)-2-[[2-Amino-5-[[(3-phenoxyphenyl)methyl]thio]thiazolo[4,5-d]pyrimidin-7-yl]amino]-1-butanol]
189 to 191 | CCCCCSc1nc2nc(Br)sc2c(=O)[nH]1 [Example 11, 2-Bromo-5-(pentylthio)thiazolo[4,5-d]pyrimidin-7(4H)-one]
151 to 154 | CCCCCSc1nc(NC(CC)CO)c2sc(N)nc2n1 (racemic) [Example 6, (±)-2-[[2-Amino-5-(pentylthio)thiazolo[4,5-d]pyrimidin-7-yl]amino]-1-butanol]
108 to 111 | CC[C@H](CO)Nc1nc(SCc2cccc(Oc3ccccc3)c2)nc2nc(N)sc12 [Example 111, (2R)-2-[[2-Amino-5-[[(3-phenoxyphenyl)methyl]thio]thiazolo[4,5-d]pyrimidin-7-yl]amino]-1-butanol]
